Laboratory results: patent US12491170B2, “Stable treprostinil prodrugs” (United Therapeutics Corporation, priority 2020, dated 2025)

Experiments:
[1] = biological target: T1, prostaglandin D2 (PGD2) receptor 1 (DP1) (Homo sapiens, UniProt Q13258); assay: DP1 receptor cAMP agonist assay (HEK293T cells); format: cell-based; conditions: Table 22; relative to treprostinil EC50 values; * partial agonists or ambiguous dose-response curves
T1 sequence (Q13258 1-359): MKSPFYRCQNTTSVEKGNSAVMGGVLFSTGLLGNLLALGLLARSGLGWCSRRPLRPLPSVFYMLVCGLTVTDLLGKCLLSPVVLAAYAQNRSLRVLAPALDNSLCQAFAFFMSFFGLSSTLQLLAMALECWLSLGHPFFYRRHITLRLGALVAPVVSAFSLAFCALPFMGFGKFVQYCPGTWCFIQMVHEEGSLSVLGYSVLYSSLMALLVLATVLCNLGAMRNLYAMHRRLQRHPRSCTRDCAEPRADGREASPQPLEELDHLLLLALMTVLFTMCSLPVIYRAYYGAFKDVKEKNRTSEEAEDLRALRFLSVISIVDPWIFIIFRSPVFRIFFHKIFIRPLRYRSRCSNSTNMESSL
Description: (§1) Cyclic AMP assay kit: Multiscreen™ TR-FRET cAMP 1.0 No Wash Assay Kit (Multispan, Inc.)
(§2) Cells were thawed from frozen cells and resuspended in assay buffer at desired concentrations. cAMP or Calcium assays were performed according to the manufacturer's protocol using Multiscreen™ TR-FRET cAMP 1.0 No Wash Assay Kit or Multiscreen™ Calcium 1.0 No Wash Kit.
(§3) Gas Cyclic AMP (cAMP) Assay: In agonist mode testing, cells were seeded in a 384-well plate at an appropriate density and then were treated with compounds and incubated at 37° C. for 20 minutes. The reaction was terminated by […] trFluor™ Eu-labeled cAMP and trFluor™ 650-labeled anti-cAMP antibody in lysis buffer. […] All testing wells contained 0.1% DMSO in the final concentrations.
(§4) Data in graphs are represented in Mean±SD. Dose-dependent responses were fitted with sigmoidal dose-response curves allowing variable slopes using GraphPad Prism version 6 (Graphpad Prism).
(§5) These studies used cell lines overexpressing either human IP, EP2 or DP1, or EP1 receptors, and following incubation with varying concentrations of compounds, cAMP levels were measured using Fluorescence Resonance Energy Transfer (FRET).

[2] = biological target: prostaglandin E2 (PGE2) receptor 2 (EP2) (Homo sapiens, UniProt P43116); assay: EP2 receptor cAMP agonist assay (HEK293T cells); format: cell-based; conditions: Table 22; relative to treprostinil EC50 values; * partial agonists or ambiguous dose-response curves
prostaglandin E2 (PGE2) receptor 2 (EP2), sequence (P43116 whole entry): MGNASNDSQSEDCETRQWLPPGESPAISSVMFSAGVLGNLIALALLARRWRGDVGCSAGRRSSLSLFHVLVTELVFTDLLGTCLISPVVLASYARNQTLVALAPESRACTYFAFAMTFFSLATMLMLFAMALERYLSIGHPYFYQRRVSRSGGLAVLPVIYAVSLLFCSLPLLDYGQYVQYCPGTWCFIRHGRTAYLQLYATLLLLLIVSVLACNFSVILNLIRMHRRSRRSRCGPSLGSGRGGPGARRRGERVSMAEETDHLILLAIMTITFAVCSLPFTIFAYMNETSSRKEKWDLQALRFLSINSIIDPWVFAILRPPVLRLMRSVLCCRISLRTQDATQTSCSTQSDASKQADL
Description: as §1, §2, §3, §4, §5

[3] = biological target: prostaglandin I2 (PGI2) receptor (IP) (Homo sapiens, UniProt P43119); assay: IP receptor cAMP agonist assay (CHO-K1 cells); format: cell-based; conditions: Table 22; relative to treprostinil EC50 values; * partial agonists or ambiguous dose-response curves
prostaglandin I2 (PGI2) receptor (IP), sequence (P43119 whole entry): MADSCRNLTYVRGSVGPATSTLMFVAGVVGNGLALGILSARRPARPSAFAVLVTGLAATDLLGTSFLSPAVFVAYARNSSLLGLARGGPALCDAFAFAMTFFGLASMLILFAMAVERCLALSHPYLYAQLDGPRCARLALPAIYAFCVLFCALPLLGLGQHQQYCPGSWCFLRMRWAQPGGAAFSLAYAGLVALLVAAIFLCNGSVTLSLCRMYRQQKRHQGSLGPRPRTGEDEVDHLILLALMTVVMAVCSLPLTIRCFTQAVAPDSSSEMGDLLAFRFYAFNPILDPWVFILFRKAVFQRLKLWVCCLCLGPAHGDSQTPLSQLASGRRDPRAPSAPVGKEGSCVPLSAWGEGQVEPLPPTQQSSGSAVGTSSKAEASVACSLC
Description: as §1, §2, §3, §4, §5

PGE2 receptor 1 (EP1) = biological target: T2, PGE2 receptor 1 (EP1) (Homo sapiens, UniProt P34995); assay: EP1 receptor calcium agonist assay (HEK293T cells); format: cell-based; conditions: Table 22; relative to treprostinil EC50 values; * partial agonists or ambiguous dose-response curves
T2 sequence (P34995 1-402): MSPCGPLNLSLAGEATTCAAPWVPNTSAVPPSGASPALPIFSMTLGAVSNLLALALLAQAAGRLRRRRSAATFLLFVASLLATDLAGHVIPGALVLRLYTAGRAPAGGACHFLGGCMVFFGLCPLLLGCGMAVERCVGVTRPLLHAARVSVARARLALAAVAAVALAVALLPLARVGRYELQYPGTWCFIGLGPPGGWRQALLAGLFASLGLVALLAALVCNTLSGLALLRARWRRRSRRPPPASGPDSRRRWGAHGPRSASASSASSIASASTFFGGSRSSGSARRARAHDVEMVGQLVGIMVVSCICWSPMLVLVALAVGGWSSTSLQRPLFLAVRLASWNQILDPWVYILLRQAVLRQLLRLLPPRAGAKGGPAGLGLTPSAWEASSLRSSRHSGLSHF
Description: Calcium assay kit: Multiscreen™ Calcium 1.0 No Wash Kit (Multispan, Inc., Cat #MSCA01-1)
• EP1 Calcium and DP1 cAMP Assays: HBSS plus 20 mM HEPES • EP2 and IP1 cAMP Assays: 1 mM IBMX in HBSS plus 20 mM HEPES Instruments: FlexStation III (Molecular Devices) and FLIPR 384 (Molecular Devices)
as §2
Calcium Assay: Cells were seeded in a 384-well plate at an appropriate density. The calcium assay was conducted according to the manufacturer's protocols (Multiscreen Calcium 1.0 No Wash Assay Kit). The calcium dye loading buffer was added to the cells and incubated for 1 hour at 37° C. For agonist mode, cells were injected with Iloprost control agonist or test compound by FLIPR and calcium mobilization was monitored for 180 seconds with compound injected into the wells at the 19th second. Fluorescent emissions were read at 525 nm with excitation at 490 nm in a FLIPR 384 instrument (Molecular Devices).
Calcium Assay: Calcium assay results are expressed as “RFU” as defined in figure below. Data are represented in Mean±SEM. Dose-response curves were fitted using “Sigmoidal dose-response (variable slope)” function in GraphPad Prism 6. EC50 values were calculated based on the fitted curves.
Prostaglandin receptor activity assessments with treprostinil and treprostinil analogues have been conducted, and a historical, positive control agonist for these receptors, iloprost (for IP, EP2 and EP1) or PGD2 (for DP1), was also included. These studies used cell lines overexpressing either human IP, EP2 or DP1, or EP1 receptors, and following incubation with varying concentrations of compounds, cAMP levels were measured using Fluorescence Resonance Energy Transfer (FRET). The 665/620 (acceptor/donor emission signals) ratio is inversely proportional to the concentration of cAMP.

[4] = Hydrolysis of prodrugs to treprostinil at pH 6, 7, 8 and 40 C; format: physicochemical
Text: Tables 24, 25 and 26 present data for hydrolysis of selected treprostinil prodrugs at pH 6, 7 and 8, respectively, and 40 C.

[5] = regardless of the route of administration; cited from earlier work
[6] = oral delivery, animal studies; cited from earlier work

SMILES	DP1 Relative to Tre [1]	EP2 Relative to Tre [2]	IP Relative to Tre [3]	EP1 Relative to Tre (PGE2 receptor 1 (EP1))	Hydrolysis to treprostinil, % Area, t = 1 week ([4]; pH 6, 40 C.)	Hydrolysis to treprostinil, % Area, t = 2 weeks ([4]; pH 6, 40 C.)	Hydrolysis to treprostinil, % Area, t = 3 weeks ([4]; pH 6, 40 C.)	Hydrolysis to treprostinil, % Area, t = 1 week ([4]; pH 7, 40 C.)	Hydrolysis to treprostinil, % Area, t = 2 weeks ([4]; pH 7, 40 C.)	Hydrolysis to treprostinil, % Area, t = 3 weeks ([4]; pH 7, 40 C.)	Hydrolysis to treprostinil, % Area, t = 1 week ([4]; pH 8, 40 C.)	Hydrolysis to treprostinil, % Area, t = 2 weeks ([4]; pH 8, 40 C.)	Hydrolysis to treprostinil, % Area, t = 3 weeks ([4]; pH 8, 40 C.)	half-life once absorbed [5]	first-pass effect [6]
CCCCCC(CCC1C(O)CC2Cc3c(cccc3OCC(=O)O)CC21)OCOC(=O)C(C)(C)C (stereo not drawn) [Prodrug LII]	73x	26x	527x	133x*											
CCCCCC(CCC1C(O)CC2Cc3c(cccc3OCC(=O)O)CC21)OC(=O)COc1ccc(OC(F)(F)F)cc1 (stereo not drawn) [Prodrug LXIV]	38x	24x*	162x*	0.03x*	0.72 % Area	1.2 % Area	1.5 % Area	0.46 % Area	0.93 % Area	1.2 % Area	1.8 % Area	3.9 % Area	5.8 % Area		
CCCCCC(CCC1C(O)CC2Cc3c(cccc3OCC(=O)O)CC21)OC(=O)COc1ccccc1 (stereo not drawn) [Prodrug LXV]	89x	187x*	599x	64x*	0.13 % Area	0.29 % Area	0.39 % Area	0.96 % Area	1.9 % Area	2.7 % Area	6.0 % Area	11.4 % Area	16.9 % Area		
CCCCC[C@H](O)CC[C@@H]1[C@H]2Cc3cccc(OCC(=O)OCC)c3C[C@H]2C[C@H]1O [Treprostinil ethyl ester, reference compound]	18x	11x	535x	30x											
CCCCC[C@H](O)CC[C@@H]1[C@H]2Cc3cccc(OCC(=O)O)c3C[C@H]2C[C@H]1O [Treprostinil]														about 1 hour	approximately 60%
